Measurements: patent publication US9686985B2, “Fungicide N-cycloalkyl-N-bicyclicmethylene-carboxamide derivatives” (BAYER INTELLECTUAL PROPERTY GMBH, priority 2012, dated 2017)

Key:
Leptosphaeria nodorum = test: Example J: in vivo preventive test on Leptosphaeria nodorum (wheat); conditions: table J, 500 ppm, evaluated 8 days after inoculation
Experimental: (§1) Example J: In Vivo Preventive Test on Leptosphaeria nodorum Test (Wheat) [table] To produce a suitable preparation of active compound, 1 part by weight of active compound or active compound combination is mixed with the stated amounts of solvent and emulsifier, and the concentrate is diluted with water to the desired concentration. To test for preventive activity, young plants are sprayed with the preparation of active compound or active compound combination at the stated rate of application. After the spray coating has been dried, the plants are sprayed with a spore suspension of Leptosphaeria nodorum. The plants remain for 48 hours in an incubation cabinet at approximately 20° C. and a relative atmospheric humidity of approximately 100%. The plants are placed in the greenhouse at a temperature of approximately 22° C. and a relative atmospheric humidity of approximately 80%.

Pyrenophora teres = test: Example N: in vivo preventive test on Pyrenophora teres (barley); conditions: table N; 500 ppm; barley plants; grading 14 days after contamination
In short: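 Barley (cv. Plaisant) at 1-leaf stage was sprayed with compound, then inoculated 24 h later with P. teres spores (12 000/mL). Plants were held 48 h at 20 °C, 100% RH, then 12 days at 20 °C, 70-80% RH; % efficacy versus solvent-treated controls was graded 14 days post-inoculation.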

Septoria tritici = test: Example L: in vivo preventive test on Septoria tritici (wheat); conditions: table L; 500 ppm; wheat plants; grading 24 days after contamination
Experimental: Example L: In Vivo Preventive Test on Septoria tritici (Wheat) […] Wheat plants (“Scipion” variety), sown in starter cups on a 50/50 peat soil pozzolana substrate and grown at 22° C., are treated at the 1 leaf stage (10 cm height) by spraying with the active ingredient prepared as described above. Plants, used as controls, are treated with the mixture of acetone/tween/DMSO/water not containing the active material. After 24 hours, the plants are contaminated by spraying the leaves with an aqueous suspension of cryopreserved Septoria tritici spores (500 000 spores per mL). The contaminated wheat plants are incubated for 72 hours at 18° C. and at 100% relative humidity, and then for 21 days at 90% relative humidity. Grading (% of efficacy) is carried out 24 days after the contamination, in comparison with the control plants.

Puccinia triticina = test: Example O: in vivo preventive test on Puccinia triticina (wheat); conditions: table O, 500 ppm, evaluated 8 days after inoculation
Experimental: as §1, with “O:” for “J:”, “Puccinia triticina” for “Leptosphaeria nodorum Test”, “Puccinia triticina.” for “Leptosphaeria nodorum.”, “20°” for “22°”

Puccinia recondita = test: Example R: in vivo preventive test on Puccinia recondita (brown rust on wheat); conditions: table R; 500 ppm; wheat plants; grading 12 days after contamination
Experimental: Example R: In Vivo Preventive Test on Puccinia recondita (Brown Rust on Wheat) […] Wheat plants (“Scipion” variety), sown in starter cups on a 50/50 peat soil pozzolana substrate and grown at 22° C., are treated at the 1 leaf stage (10 cm height) by spraying with the active ingredient prepared as described above. Plants, used as controls, are treated with the mixture of acetone/tween/DMSO/water not containing the active material. After 24 hours, the plants are contaminated by spraying the leaves with an aqueous suspension of Puccinia recondita spores (100 000 spores per mL). The spores are collected from an infected plant and are suspended in water containing 2.5 mL/L of Tween 80 at 10%. The contaminated wheat plants are incubated for 24 hours at 20° C. and at 100% relative humidity, and then for 10 days at 20° C. and at 70-80% relative humidity. Grading (% of efficacy) is carried out 12 days after the contamination, in comparison with the control plants.

[1] = system: Fusarium nivale (var. majus); test: Example P: in vivo preventive test on Fusarium nivale (wheat); conditions: table P, 500 ppm, evaluated 5 days after inoculation
Experimental: Example P: In Vivo Preventive Test on Fusarium nivale (Wheat) [table] To produce a suitable preparation of active compound, 1 part by weight of active compound or active compound combination is mixed with the stated amounts of solvent and emulsifier, and the concentrate is diluted with water to the desired concentration. To test for preventive activity, young plants are sprayed with the preparation of active compound or active compound combination at the stated rate of application. After the spray coating has been dried, the plants are slightly injured by using a sandblast and afterwards they are sprayed with a conidia suspension of Fusarium nivale (var. majus). The plants are placed in the greenhouse under a translucent incubation cabinet at a temperature of approximately 10° C. and a relative atmospheric humidity of approximately 100%.

Botrytis cinerea = test: Example H: in vivo preventive test on Botrytis cinerea (beans); conditions: table H, 100 ppm, lesion size 2 days after inoculation
Experimental: Example H: In Vivo Preventive Test on Botrytis cinerea (Beans)
To produce a suitable preparation of active compound, 1 part by weight of active compound is mixed with the stated amounts of solvent and emulsifier, and the concentrate is diluted with water to the desired concentration.
To test for preventive activity, young plants are sprayed with the preparation of active compound. After the spray coating has dried on, 2 small pieces of agar covered with growth of Botrytis cinerea are placed on each leaf. The inoculated plants are placed in a darkened chamber at 20° C. and a relative atmospheric humidity of 100%.
2 days after the inoculation, the size of the lesions on the leaves is evaluated. 0% means an efficacy which corresponds to that of the untreated control, while an efficacy of 100% means that no disease is observed.

Sphaerotheca fuliginea = test: Example B: in vivo preventive test on Sphaerotheca fuliginea (powdery mildew on cucurbits); conditions: table B; 500 ppm; gherkin plants; grading 12 days after contamination
Experimental: Example B: In Vivo Preventive Test on Sphaerotheca fuliginea (Powdery Mildew on Cucurbits) […] Gherkin plants (“Vert petit de Paris” variety), sown in starter cups on a 50/50 peat soil-pozzolana substrate and grown at 24° C., are treated at the Z11 cotyledon stage by spraying with the active ingredient prepared as described above. Plants, used as controls, are treated with the mixture of acetone/tween/DMSO/water not containing the active material. After 24 hours, the plants are contaminated by spraying the cotyledons with an aqueous suspension of Sphaerotheca fuliginea spores (100 000 spores per mL). The spores are collected from infected plants. The contaminated gherkin plants are incubated at about 20° C. and at 70-80% relative humidity. Grading (% of efficacy) is carried out 12 days after the contamination, in comparison with the control plants.

| SMILES | Efficacy (Leptosphaeria nodorum) | Efficacy (Pyrenophora teres) | Efficacy (Septoria tritici) | Efficacy (Puccinia triticina) | Efficacy (Puccinia recondita) | Efficacy [1] | Efficacy (Botrytis cinerea) | Efficacy (Sphaerotheca fuliginea) |
| --- | --- | --- | --- | --- | --- | --- | --- | --- |
| Cn1nc(C(F)F)c(C(=O)N(CC2CC(C)(C)Oc3ccccc32)C2CC2)c1F (stereo not shown) [I.33] | 100% | 100% | 100% | 100% | 97% | 100% | 96% | 100% |
| CC(C1CCCc2ccccc21)N(C(=O)c1c(C(F)F)nn(C)c1F)C1CC1 (stereo not shown) [I.23] | 100% | 100% | 100% | 75% | 97% | 100% | 99% | 100% |
